The values that follow come from publication PMC9963659, “Novel 2-Thiouracil-5-Sulfonamide Derivatives: Design, Synthesis, Molecular Docking, and Biological Evaluation as Antioxidants with 15-LOX Inhibition” (Molecules, 2023).

Each structure is given as a SMILES string. Where two headings read alike, the source gives them in different places.

One series concerns human 15-LOX. The conditions noted are these: cited from earlier work.
Details of series [1]: method as in PMID 23248677. The conditions noted are these: cited from earlier work.
The test system of series [2] is 15-LOX-1. More on the design: method as in PMID 26560362. The conditions noted are these: cited from earlier work.
In series [3] the test system is 15-LOX-1. Details: method as in PMID 26560362. The conditions noted are these: human; cited from earlier work.
Series [4] has as its system 15-LOX-1. Details: method as in PMID 26560362. The conditions noted are these: rabbit enzyme; cited from earlier work.
Series [5] is described as follows: DPPH radical scavenging assay. The format is biochemical. The conditions noted are these: mean ± SEM of three experiments. As for the experimental part:
The antioxidant potential of all target compounds (3–9) was determined using DPPH radical scavenging assay in comparison with ascorbic acid (AA) as the control treatment.
The mechanism of antioxidants as DPPH radical scavengers is based on their hydrogen-donation ability as hydrogen atoms or an electron transfer from the compound to the DPPH to form DPPH-H. The results of DPPH reduction are presented in Table 2, Figure 7.
The DPPH scavenging activity of all novel synthesized compounds (3–9) was measured as previously described (see Supplementary Materials).
1-Biological Evaluation Details: a-In-vitro Assays for biological antioxidant Activity
- DPPH scavenging method.
A 96-well plate was filled with 100 µL of the investigated compounds at various concentrations (12.5, 25, 50, 100, and 200 µg/mL ). The plate was then incubated at room temperature for 30 min while being protected from light by adding 100 µL of 100µM DPPH methanolic solution to each well. At a λ517 nm. the solution's absorbance was measured.
The positive control was ascorbic acid, and the negative control was DMSO. According to the following equation, the percentage of DPPH scavenging activity was determined:
% of DPPH scavenging = [(A control -A sample) / A control] x100. where A control is the absorbance of the control reaction (with all reagents except the test compound), and A sample is the absorbance of the test sample. Linear regression analysis was performed to calculate drug concentration showing 50% free radical inhibition activity (IC50). All tests were performed in triplicates. […]

A further series deals with T1, Soybean 15-LOX enzyme (Glycine max, UniProt P08170).
T1 construct: purchased Cayman Chemical 760700
T1 sequence (P08170 1-839): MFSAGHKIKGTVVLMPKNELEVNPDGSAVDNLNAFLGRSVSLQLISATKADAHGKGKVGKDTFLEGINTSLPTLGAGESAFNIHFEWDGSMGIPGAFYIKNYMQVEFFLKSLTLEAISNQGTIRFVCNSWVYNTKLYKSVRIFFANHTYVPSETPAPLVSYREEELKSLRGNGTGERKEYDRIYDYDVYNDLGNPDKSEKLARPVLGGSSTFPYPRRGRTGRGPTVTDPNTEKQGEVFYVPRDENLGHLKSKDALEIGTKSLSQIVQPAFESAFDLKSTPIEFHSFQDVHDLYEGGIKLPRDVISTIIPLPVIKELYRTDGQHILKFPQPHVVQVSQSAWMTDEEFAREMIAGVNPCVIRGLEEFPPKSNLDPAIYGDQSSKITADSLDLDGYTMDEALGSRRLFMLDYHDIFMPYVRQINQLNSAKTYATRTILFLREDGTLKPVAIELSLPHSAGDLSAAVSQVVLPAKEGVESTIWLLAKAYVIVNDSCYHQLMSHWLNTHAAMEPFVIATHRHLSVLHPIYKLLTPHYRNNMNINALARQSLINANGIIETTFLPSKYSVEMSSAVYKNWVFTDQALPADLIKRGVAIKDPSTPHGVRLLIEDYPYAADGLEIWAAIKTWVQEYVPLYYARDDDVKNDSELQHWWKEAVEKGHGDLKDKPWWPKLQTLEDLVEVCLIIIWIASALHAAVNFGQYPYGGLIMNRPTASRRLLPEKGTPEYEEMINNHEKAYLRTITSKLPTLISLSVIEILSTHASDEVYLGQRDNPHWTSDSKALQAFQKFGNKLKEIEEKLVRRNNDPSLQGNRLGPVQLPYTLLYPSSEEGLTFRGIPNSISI
In words: In vitro 15-lipoxygenase inhibition (Cayman Lipoxygenase Inhibitor Screening Assay Kit). The format is biochemical. The conditions noted are these: Soybean 15-LOX, arachidonic acid substrate; mean ± SEM of three experiments. The procedure: 90 µL of 15-LOX was pipetted into a 96-well plate quickly. The test chemical was then dissolved in DMSO in 10 µL portions at concentrations of 2.5 µM, 5.0 µM, and 10 µM and added to each well. Arachidonic acid, a 110 µL substrate, was added to start the reaction, and the plate was shaken for at least five minutes. In order to interrupt enzyme catalysis and advance the reaction, 100 µL of chromogen was added to each well and made in accordance with the manufacturer’s instructions. In blank wells, 100 µL of assay buffer (0.1 M Tris-HCl, pH 7.4) was utilized. […] The solution’s absorbance was determined at λ 490–500 nm. The percentage inhibition was calculated according to the following equation:% inhibition = [(IA − Ainhibitor sample)/IA] × 100(1) where (IA) is the 100% initial activity and (Ainhibitor sample) is the absorbance of the test sample. A dose-response curve was plotted between % inhibition and the drug concentration. The non-linear dose-response curve was used for calculating drug concentration showing 50% enzyme inhibition.

A short description of series [6]: Hydrogen peroxide scavenging assay. The conditions noted are these: mean ± SEM of three experiments. In kind it is biochemical. As for the experimental part: H2O2 assay is used to estimate the scavenging power of the target compounds (4–9) to H2O2.
The hydrogen peroxide (H2O2) scavenging activity of all novel synthesized compounds 3–9 was measured as previously reported (see Supplementary Materials).
1-Biological Evaluation Details: a-In-vitro Assays for biological antioxidant Activity […]
Linear regression analysis was performed to calculate drug concentration showing 50% free radical inhibition activity (IC50). All tests were performed in triplicates.
-Scavenging of hydrogen peroxide
In this method, the decay or loss of hydrogen peroxide can be quantified spectrophotometrically at 230 nm when a scavenger is incubated with it. The procedure was applied with a few changes. In phosphate buffered saline, hydrogen […]
peroxide (20 mM) solution was prepared in phosphate buffered saline (PBS, pH 7.4). In order to make different concentrations of 1 ml of the tested substances (3–9) or standards in methanol, 2 ml of hydrogen peroxide solution in PBS was added. After 10 minutes, the absorbance of H2O2 was measured at 230 nm in comparison to an ascorbic acid (AA) reference solution that contained phosphate buffer but no H2O2.
% of H2O2 scavenging = [(A control -A sample) / A control] x100. […]

Series [7] can be described thus: Lipid peroxidation assay (FeCl2/H2O2-stimulated linoleic acid peroxidation). The format is biochemical. The conditions noted are these: mean ± SEM of three experiments.

For the compound `CCCCCc1ccc(S(=O)(=O)NCCc2nc(-c3ccccc3)[nH]c2-c2ccc(OC)cc2)cc1` [XV], the 50% inhibitory concentration (IC50) was 50 nM in the series with human 15-LOX (AA, read-out: 15-LOX IC50 (AA)) and 17 nM in the series on human 15-LOX (LA, read-out: 15-LOX IC50 (LA)).
Regarding `COc1ccc(-c2cc3cc(F)c(F)cc3[nH]2)cc1NS(=O)(=O)c1cccs1` [XIV], the IC50 with human 15-LOX (read-out: 15-LOX IC50) was 7 nM.
As to `CC1=C(C(=O)OC(C)C)C(c2ccco2)NC(=S)N1` (centres unmarked) [XII], the “antioxidant activity IC50” value in series [1] is 600 µg/mL.
As for `c1csc(C2CSC(c3nc4ccccc4[nH]3)=N2)c1` (centres unmarked) [XVIII], the IC50 with 15-LOX-1 [2] was 96 nM.
For `O=S(=O)(Nc1cccc(-c2nc3cccnc3[nH]2)c1)c1cccs1` [XVI], in the series on human 15-LOX (read-out: 15-LOX IC50), the 50% inhibitory concentration (IC50) was 10000 nM.
`O=c1c2cnc(N3CCOCC3)nc2sn1CCN1CCCCC1` [XIX]: in the series on 15-LOX-1 [3], the IC50 was 120 nM.
In the case of `O=C(O)c1cc(O)c(O)c(O)c1` [gallic acid], the “antioxidant activity IC50” value in [1] is 0.8 µg/mL.
As to `COc1ccc(-c2cc3cc(F)c(F)cc3[nH]2)cc1NC(=S)Nc1cccc(C(=O)O)c1` [XVII], in the series on 15-LOX-1 [4], the IC50 was 2 nM.
The compound `N#Cc1c(-c2cccc([N+](=O)[O-])c2)cc(-c2cccc(NS(=O)(=O)c3c[nH]c(=S)[nH]c3=O)c2)[nH]c1=O` [Compound 6a, N-{3-[5-cyano-4-(3-nitrophenyl)-6-oxo-1,6-dihydropyridin-2-yl]phenyl}-4-oxo-2-thioxo-1,2,3,4-tetrahydropyrimidine-5-sulfonamide] showed a melting point of 266 to 268 °C. Further, the “DPPH IC50” value in series [5] is given as 28.0 ± 1.06 µg/mL. The IC50 on Soybean 15-LOX enzyme amounted to 7850 ± 10 nM. In series [6], the “H2O2 IC50” value was found to be 31.0 ± 1.30 µg/mL. For the same compound, in [7], the “Lipid Peroxidation IC50” value is 45.0 ± 1.52 µg/mL.
